Data on 17 compounds can be found in PubChem BioAssay (NCI).

Test systems include MCF7 breast; PC-3 prostate; MDA-MB-435; HS 578T breast.
Holding throughout (experiment): NCI anticancer screen, dose series, 48 h

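Each compound was tested at five concentrations against cells in 96-well plates for 48 hours. GI50 = concentration required for 50% inhibition of growth. TGI: concentration producing complete growth inhibition.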 Where only a bound is given, the exact number is not on record here.

For `Nc1c(C(=O)Nc2ccccc2Cl)sc2nc3c(cc12)CCCCCC3`, the GI50 in the experiment on MCF7 breast was 0.896 µM; in the experiment with PC-3 prostate it was 15.4 µM; in the experiment with MDA-MB-435, 0.275 µM; with HS 578T breast, 2.9 µM. In addition, the TGI in the experiment with MCF7 breast is 16.7 µM; in the experiment with PC-3 prostate, above 100 µM; in the experiment on MDA-MB-435, 1.1 µM; in the experiment on HS 578T breast it was 14.6 µM.
`Cc1ccc(S(=O)(=O)N2CCc3ccc(O)c4c3C2Cc2cc(Cl)ccc2-4)cc1` (stereo not given): the GI50 in the experiment with MCF7 breast is 1.08 µM; in the experiment on PC-3 prostate, 0.917 µM; with MDA-MB-435, 0.635 µM; in the experiment on HS 578T breast, 0.889 µM. Also, the TGI was found to be 6.28 µM in the experiment with MCF7 breast, 6.8 µM in the experiment with PC-3 prostate, 1.45 µM in the experiment with MDA-MB-435 and 6.68 µM in the experiment with HS 578T breast.
Regarding `COc1ccc2c(c1)CCC1C2CC[C@]2(C)/C(=N/OC(=O)Cc3ccccc3)CCC12` (stereo not given in full), the GI50 with MCF7 breast was 24.7 µM; in the experiment with PC-3 prostate, 18.5 µM; in the experiment with MDA-MB-435, 16.7 µM; with HS 578T breast it was 28.6 µM. Moreover, the TGI was found to be 54.5 µM in the experiment with MCF7 breast, 59.4 µM with PC-3 prostate, 30.5 µM in the experiment on MDA-MB-435 and 70 µM with HS 578T breast.
Turning to `Cc1nc(NC(=O)CCCN2C(=O)c3cccc4cccc(c34)C2=O)sc1C(=O)Nc1cc(C(=O)NCCCN(C)C)n(C)c1`, the GI50 in the experiment with MCF7 breast, with PC-3 prostate, in the experiment with MDA-MB-435 and in the experiment on HS 578T breast was above 100 µM throughout. The TGI in the experiment with MCF7 breast, in the experiment on PC-3 prostate, in the experiment on MDA-MB-435 and with HS 578T breast was above 100 µM in each case.
As for `CCn1cnc2c(Nc3cccc(Cl)c3)nc(N[C@@H]3CCCC[C@@H]3N)nc21`, the GI50 was 0.824 µM in the experiment on MCF7 breast, 1.3 µM in the experiment on PC-3 prostate, 1.42 µM with MDA-MB-435 and 2.36 µM in the experiment on HS 578T breast. The TGI in the experiment with MCF7 breast was determined as 3.23 µM; in the experiment with PC-3 prostate, 3.36 µM; with MDA-MB-435, 2.82 µM; in the experiment with HS 578T breast, 7.99 µM.
Consider `COc1ccc2c(c1)CC[C@@H]1[C@@H]2CC[C@]2(C)C(c3ccco3)=C(C=O)C[C@@H]12`, for which the GI50 was 8.2 µM in the experiment on MCF7 breast, 5.66 µM in the experiment with PC-3 prostate, 2.21 µM with MDA-MB-435 and 23.2 µM in the experiment on HS 578T breast. In addition, the TGI in the experiment on MCF7 breast is above 100 µM; with PC-3 prostate, 37.3 µM; with MDA-MB-435, 5.88 µM; with HS 578T breast, 60 µM.
As to `CCOC(=O)c1sc(=S)c2c(C(=O)OCC)c(C(=O)OCC)sc2c1C(=O)OCC`, the GI50 in the experiment with MCF7 breast is 15.2 µM; in the experiment with PC-3 prostate, 8.17 µM; with MDA-MB-435, 27.4 µM; in the experiment with HS 578T breast, 17.7 µM. Further, the TGI with MCF7 breast turned out to be 29.9 µM; with PC-3 prostate it was 21.2 µM; in the experiment on MDA-MB-435, 67.2 µM; in the experiment on HS 578T breast, 47.3 µM.
Consider `Nc1ccc(/C=N/Nc2ccnc3c(N)cccc23)c2cccnc12`, for which the GI50 in the experiment on MCF7 breast is 1.48 µM; in the experiment on MDA-MB-435, 1.64 µM; with HS 578T breast, 2.04 µM. In addition, the TGI in the experiment with MCF7 breast was 3.12 µM; with MDA-MB-435, 3.16 µM; in the experiment on HS 578T breast, 4.62 µM.
Turning to `CCC(C)C(NC(=O)C1CCCN1C(=O)C(NC(=O)C(C)N)C(C)C)C(N)=O` (stereo not given), the GI50 with MCF7 breast, with PC-3 prostate, with MDA-MB-435 and with HS 578T breast was above 100 µM in each case. Besides, the TGI in the experiment on MCF7 breast, with PC-3 prostate, in the experiment with MDA-MB-435 and with HS 578T breast was above 100 µM each time.
In the case of `C=C1C(=O)O[C@H]2[C@H]1CC/C(COC(=O)NCc1c[nH]c3ccc(Cl)cc13)=C\CC[C@@]1(C)O[C@@H]21`, the GI50 in the experiment on PC-3 prostate is 1.52 µM; in the experiment with MDA-MB-435, 1.12 µM; with HS 578T breast, 2.45 µM. Moreover, the TGI was determined as 3.08 µM with PC-3 prostate, 2.48 µM in the experiment with MDA-MB-435 and 6.82 µM with HS 578T breast.
In the case of `CN(C)CCCc1c[nH]c2ccccc12`, the TGI with MCF7 breast, in the experiment with PC-3 prostate, in the experiment on MDA-MB-435 and in the experiment on HS 578T breast was above 100 µM each time.
For the compound `CCC(=C/[C@H](C)C/C=C/C(C)=C/[C@@H](C)C(=O)[C@@H](C)[C@H](O)[C@@H](C)CC)/C=C/[C@H]1OC(=O)C=C[C@H]1C`, the GI50 in the experiment on MCF7 breast, in the experiment with PC-3 prostate, in the experiment with MDA-MB-435 and in the experiment with HS 578T breast was below 0.01 µM each time. The TGI amounted to 1.18 µM in the experiment with MCF7 breast, 1.57 µM with PC-3 prostate, 0.0256 µM in the experiment with MDA-MB-435 and 0.438 µM in the experiment on HS 578T breast.
Regarding `NCCC(O)(P(=O)(O)O)P(=O)(O)O`, the GI50 in the experiment on MCF7 breast was 37 µM; in the experiment on MDA-MB-435 it was above 100 µM; in the experiment with HS 578T breast it was above 100 µM. Besides, the TGI with MCF7 breast, in the experiment on MDA-MB-435 and with HS 578T breast was above 100 µM each time.
Take `COc1ccc(-c2nc(-c3nc4ccc(OC)cc4[nH]3)cc3c2[nH]c2ccccc23)cc1`: the GI50 in the experiment with MCF7 breast was 2.55 µM; with PC-3 prostate, 1.52 µM; with MDA-MB-435, 4.31 µM; in the experiment on HS 578T breast, 2.85 µM. Moreover, the TGI in the experiment on MCF7 breast, in the experiment on PC-3 prostate, in the experiment on MDA-MB-435 and in the experiment on HS 578T breast was above 100 µM in each case.
For `CC(=O)N=c1ccc2nc3c(cc(N)c4ccccc43)oc-2c1`, the values for the GI50 in the experiment with MCF7 breast, in the experiment on PC-3 prostate and in the experiment with MDA-MB-435 were 0.753 µM, 1.05 µM and 0.207 µM, respectively. Also, the TGI is 2.4 µM in the experiment on MCF7 breast, 5.83 µM with PC-3 prostate, 0.421 µM in the experiment with MDA-MB-435 and above 23.8 µM with HS 578T breast.
`COc1ccc(-c2ccc(C3CC(c4ccc(Cl)cc4)=NN3)o2)c([N+](=O)[O-])c1` (stereo not given): the GI50 with MCF7 breast, in the experiment on PC-3 prostate, with MDA-MB-435 and in the experiment on HS 578T breast was above 100 µM each time. In addition, the TGI with MCF7 breast, with PC-3 prostate, with MDA-MB-435 and in the experiment on HS 578T breast was above 100 µM throughout.
Consider `COc1cc(-n2cc(-c3ccc(Cl)cc3)[nH]c2=O)cc(OC)c1OC`, for which the GI50 with MCF7 breast is 35 µM; with PC-3 prostate, 16.4 µM; with MDA-MB-435, 88.4 µM; in the experiment on HS 578T breast, 76.6 µM. Further, the TGI in the experiment on MCF7 breast was above 100 µM; with PC-3 prostate, 51.2 µM; in the experiment with MDA-MB-435 it was above 100 µM; in the experiment with HS 578T breast, above 100 µM.
